Measured values as given in paper PMC6515340, “Synthesis of a Fluorous-Tagged Hexasaccharide and Interaction with Growth Factors Using Sugar-Coated Microplates” (Molecules, 2019).
Where “and” joins values, the source holds several entries; their conditions need not be identical. Equal entries are not always repeated. Entries after “also recorded” stand apart in the source; their conditions may differ. Where two headings read alike, the source gives them in different places.

How the values were obtained:
midkine [1] = target: T1, midkine (Homo sapiens, UniProt P21741); test: Fluorescence polarization (FP) competition experiment, midkine; assay type: binding; details: midkine 63 nM
T1 sequence (P21741 21-143): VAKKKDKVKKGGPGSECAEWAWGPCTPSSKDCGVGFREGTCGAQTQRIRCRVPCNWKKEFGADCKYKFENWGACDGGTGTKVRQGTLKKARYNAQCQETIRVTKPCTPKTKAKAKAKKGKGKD
Excerpt: (§1) Thus, we initiated the study of the interactions between 17 and midkine, FGF-2 and NGF growth factors. First, we estimated the solution-phase binding affinities using our previously reported fluorescence polarization (FP) competition experiment (see Supplementary Materials). Briefly, we measured the ability of hexasaccharide 17 to compete with a fluorescent probe for protein binding. Thus, we calculated IC50 values as 17 concentration required for 50% inhibition. […] We also attempted to measure the binding of 17 to NGF.
(§2) Fluorescence polarization assays
(§3) In order to calculate IC 50 values, fluorescence polarization competition experiments were performed following our previously reported protocol. 1 Briefly, we recorded the fluorescence polarization from wells containing 20 µL of protein solution (midkine or FGF-2) and 10 µL of probe solution (a fluorescein labelled heparin-like hexasaccharide) in the presence of 10 µL of 17 solutions with different concentrations. 384-well microplates from Corning were used in these assays. After shaking in the dark for 5 min, the fluorescence polarization was measured using a TRIAD multimode microplate reader (from Dynex), with excitation and emission wavelengths of 485 and 535 nm, respectively. […]
(also on this page, place not known: r 2 Fluorescence Polarization (mP) r 2 Fluorescence Polarization (mP) r 2 Fluorescence Polarization (mP))

FGF-2 [2] = target: T2, FGF-2 (Homo sapiens, UniProt P09038); test: Fluorescence polarization (FP) competition experiment, FGF-2; assay type: binding; details: solution FP competition with fluorescent heparin-like hexasaccharide probe (10 nM), FGF-2 97 nM; average ± SD of three independent experiments
Excerpt: as §1, §2, §3
Target sequence in this assay (P09038 143-288): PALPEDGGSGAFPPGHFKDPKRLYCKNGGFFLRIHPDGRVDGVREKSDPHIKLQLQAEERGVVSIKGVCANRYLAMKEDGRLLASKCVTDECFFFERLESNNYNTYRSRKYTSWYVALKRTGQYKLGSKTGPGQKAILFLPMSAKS
(also on this page, place not known: r 2 Fluorescence Polarization (mP) IC50 r 2 Fluorescence Polarization (mP) IC50 r 2 Fluorescence Polarization (mP))

Recombinant human NGF = target: T3, Recombinant human NGF (Homo sapiens, UniProt P01138); test: Fluorous sugar-coated microplate direct binding assay, NGF
T3 construct: purchased Peprotech
T3 sequence (P01138 122-241): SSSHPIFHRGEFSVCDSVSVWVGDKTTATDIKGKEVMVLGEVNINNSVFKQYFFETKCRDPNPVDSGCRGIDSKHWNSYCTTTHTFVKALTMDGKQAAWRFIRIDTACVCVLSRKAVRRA
Excerpt: (§4) An alternative strategy was also considered to study these molecular recognition events. This approach involved the non-covalent immobilization of the fluorinated hexamer 17 on microtiter plates (Figure 1). Fluorous-based microarrays for the investigation of carbohydrate-protein interactions have been previously developed. A C8F17 tail was employed for the noncovalent immobilization of sugar derivatives on fluorous coated glass slides. However, to the best of our knowledge, an experimental protocol to study the interactions between fluorous sugar-coated conventional microplates and proteins has not been published. […] Thus, we created a fluorinated surface ready for the immobilization of compound 17 through noncovalent fluorous-fluorous interactions. […] Then, the binding of the attached sugar 17 to growth factors was analyzed. Incubation with different concentrations of midkine, FGF-2 and NGF was carried out and the bound protein was detected by further incubations with the corresponding primary and fluorescently labelled secondary antibodies (see Materials and Methods). Finally, the fluorescence was recorded using a standard microplate reader. The observation of fluorescence signals confirmed the interaction between immobilized 17 and the protein at a particular concentration. […]
(§5) The fluorescence was read at 535 nm using a TRIAD multimode microplate reader (from Dynex). […]

Concanavalin A = target: T4, Concanavalin A (Canavalia ensiformis, UniProt P02866); test: Sugar-coated microplate control with FITC-labelled Concanavalin A; assay type: binding; details: fluorescently labelled protein at 11 µM
T4 construct: purchased Sigma
Method: (§6) Importantly, we performed a control experiment in which sugar 3, instead of hexamer 17, was immobilized on the fluorous-functionalized plate (see Supplementary Materials). […] In addition, wells coated with hexamer 17 were incubated with two fluorescently labelled non-GAG binding proteins, Concanavalin A and bovine serum albumin, at 11 µM concentration (see Supplementary Materials). Again, we observed no fluorescence signals from these wells.
(§7) 2. Control experiments using additional (irrelevant) proteins.
(§8) The wells of Nunc Immobilizer AminoTM 384 microtiter plates were functionalized with heptadecafluorononylamine linker and then filled with a solution of hexamer 17 as described in the Materials and Methods section of the main text. The resulting hexasaccharide 17-coated wells were ready to perform protein interaction studies. Blank wells were coated with the fluorous linker alone. […]
(§9) Finally, the fluorescence was read at 535 nm using a TRIAD multimode microplate reader (from Dynex). For each protein, the residual fluorescence intensities obtained from blank samples were subtracted from the sugar-coated well values. In Figure S4, we show the average fluorescence intensities of three replicates after incubation with BSA and ConA. For comparison purposes, we also display the fluorescence values obtained after incubation with a 375 nM solution of midkine (detected by antibody incubations). […]

bovine serum albumin = target: T5, bovine serum albumin (Bos taurus, UniProt P02769); test: Sugar-coated microplate control with FITC-labelled bovine serum albumin; assay type: binding; details: fluorescently labelled protein at 11 µM
T5 construct: purchased Sigma-Aldrich
T5 sequence (P02769 25-607): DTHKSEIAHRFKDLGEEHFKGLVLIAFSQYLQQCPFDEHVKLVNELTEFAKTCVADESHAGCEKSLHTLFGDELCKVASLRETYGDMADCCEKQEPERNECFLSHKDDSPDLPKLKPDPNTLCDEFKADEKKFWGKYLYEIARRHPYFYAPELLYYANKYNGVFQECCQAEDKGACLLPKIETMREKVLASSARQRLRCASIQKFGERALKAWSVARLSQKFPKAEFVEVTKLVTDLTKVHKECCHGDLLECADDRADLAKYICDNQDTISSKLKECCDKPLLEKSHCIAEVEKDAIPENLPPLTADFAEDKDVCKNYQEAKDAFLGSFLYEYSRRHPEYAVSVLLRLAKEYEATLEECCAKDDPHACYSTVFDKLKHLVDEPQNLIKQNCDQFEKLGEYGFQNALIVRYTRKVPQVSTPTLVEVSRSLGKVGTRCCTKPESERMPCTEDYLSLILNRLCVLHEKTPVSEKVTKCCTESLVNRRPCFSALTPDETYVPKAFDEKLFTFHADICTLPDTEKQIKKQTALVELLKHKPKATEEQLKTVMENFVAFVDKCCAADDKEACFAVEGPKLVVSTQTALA
Method: as §6, §7, §8, §9

midkine [3] = target: T1, midkine; test: Fluorous sugar-coated microplate direct binding assay, midkine; set-up: purchased Peprotech
Excerpt: as §4, §5

FGF-2 [4] = target: T2, FGF-2; test: Fluorous sugar-coated microplate direct binding assay, FGF-2; set-up: purchased Peprotech
Excerpt: as §4, §5
Target sequence in this assay (P09038 135-288 limits assumed): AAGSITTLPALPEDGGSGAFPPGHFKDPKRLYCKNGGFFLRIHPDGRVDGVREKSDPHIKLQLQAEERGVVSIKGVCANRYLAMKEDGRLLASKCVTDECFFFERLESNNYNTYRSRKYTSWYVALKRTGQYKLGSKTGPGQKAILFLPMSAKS

[5] = read-out: KD,surf, sugar immobilized on fluorous-functionalized microplate, one-site binding model

Q: Which results are given for `COc1ccc(OC2OC(COC(=O)CCC(F)(F)C(F)(F)C(F)(F)C(F)(F)C(F)(F)C(F)(F)C(F)(F)C(F)(F)F)C(OC3OC(COS(=O)(=O)O)C(OS(=O)(=O)O)C(OC4OC(COC(=O)C(C)(C)C)C(OC5OC(COS(=O)(=O)O)C(OS(=O)(=O)O)C(OC6OC(COC(=O)C(C)(C)C)C(OC7OC(COS(=O)(=O)O)C(OS(=O)(=O)O)C(OC(=O)CCC(C)=O)C7N7C(=O)c8ccccc8C7=O)C(OCc7ccccc7)C6OC(=O)c6ccccc6)C5N5C(=O)c6ccccc6C5=O)C(OCc5ccccc5)C4OC(=O)c4ccccc4)C3N3C(=O)c4ccccc4C3=O)C(OCc3ccccc3)C2OC(=O)c2ccccc2)cc1` (centres unmarked) [Compound 17]?
A: IC50 (midkine [1]; Figure S1, individual competition curves, probe 10 nM, read-out: IC50 (single independent experiment)): 428 nM and 479 nM and 431 nM; IC50 (midkine [1]; solution FP competition with fluorescent heparin-like hexasaccharide probe (10 nM), average ± SD of three independent experiments, read-out: IC50): 450 ± 30 nM; IC50 (FGF-2 [2]): 6300 ± 1600 nM; Kd (Recombinant human NGF; [5]): 1600 ± 400 nM; interaction of immobilized sugar with Concanavalin A (Concanavalin A): did not interact; interaction of immobilized sugar with bovine serum albumin (bovine serum albumin): did not interact; Kd (midkine [3]; [5]): 16 ± 5 nM; Kd (FGF-2 [4]; [5]): 57 ± 10 nM

Q: Which results are given for `COc1ccc(O[C@@H]2O[C@H](COC(=O)CCC(F)(F)C(F)(F)C(F)(F)C(F)(F)C(F)(F)C(F)(F)C(F)(F)C(F)(F)F)[C@@H](O)[C@H](OCc3ccccc3)[C@H]2OC(=O)c2ccccc2)cc1` [Compound 3]?
A: fluorescence signal / interaction of immobilized sugar with NGF (Recombinant human NGF; control, sugar immobilized from 250 µM solution, 1.8 µM NGF): did not significantly interact; also recorded: No fluorescence signals above background; fluorescence signal / interaction of immobilized sugar with midkine (midkine [3]; control, sugar immobilized from 250 µM solution, 375 nM midkine): did not significantly interact; also recorded: No fluorescence signals above background; fluorescence signal / interaction of immobilized sugar with FGF-2 (FGF-2 [4]; control, sugar immobilized from 250 µM solution, 387 nM FGF-2): did not significantly interact; also recorded: No fluorescence signals above background
